# Assay results from ChEMBL document CHEMBL1141126, “Improving the antiviral efficacy and selectivity of HIV-1 reverse transcriptase inhibitor TSAO-T by the introduction of functional groups at the N-3 position” (J Med Chem, 2005).
# System: Human immunodeficiency virus 2
# Test: Effective concentration required to inhibit HIV-2 induced cytopathicity in human CEM cell line
# Format: functional, organism-based
# Settings: Human immunodeficiency virus 2, CCRF-CEM
row,Compound,EC50 [µM]
1,COC(=O)Cn1c(=O)c(C)cn([C@@H]2O[C@H](CO[Si](C)(C)C(C)(C)C)[C@@]3(OS(=O)(=O)C=C3N)[C@H]2O[Si](C)(C)C(C)(C)C)c1=O,> 152
2,CCOC(=O)CCCCCn1c(=O)c(C)cn([C@@H]2O[C@H](CO[Si](C)(C)C(C)(C)C)[C@@]3(OS(=O)(=O)C=C3N)[C@H]2O[Si](C)(C)C(C)(C)C)c1=O,> 50
3,Cc1cn([C@@H]2O[C@H](CO[Si](C)(C)C(C)(C)C)[C@@]3(OS(=O)(=O)C=C3N)[C@H]2O[Si](C)(C)C(C)(C)C)c(=O)n(CC(=O)N(C)C)c1=O,> 250
4,Cc1cn([C@@H]2O[C@H](CO[Si](C)(C)C(C)(C)C)[C@@]3(OS(=O)(=O)C=C3N)[C@H]2O[Si](C)(C)C(C)(C)C)c(=O)n(CCCN)c1=O,> 10
5,COCCn1c(=O)c(C)cn([C@@H]2O[C@H](CO[Si](C)(C)C(C)(C)C)[C@@]3(OS(=O)(=O)C=C3N)[C@H]2O[Si](C)(C)C(C)(C)C)c1=O,> 10
6,Cc1cn([C@@H]2O[C@H](CO[Si](C)(C)C(C)(C)C)[C@@]3(OS(=O)(=O)C=C3N)[C@H]2O[Si](C)(C)C(C)(C)C)c(=O)n(CCc2ccccc2)c1=O,> 10
7,Cc1cn([C@@H]2O[C@H](CO[Si](C)(C)C(C)(C)C)[C@@]3(OS(=O)(=O)C=C3N)[C@H]2O[Si](C)(C)C(C)(C)C)c(=O)n(CCCCO)c1=O,> 10

# Target: Human immunodeficiency virus type 1 reverse transcriptase (Human immunodeficiency virus 1, UniProt Q72547)
# Test: Inhibitory concentration required to inhibit recombinant HIV-1 reverse transcriptase
# Settings: not given
row,Compound,IC50 [µM]
1,COC(=O)Cn1c(=O)c(C)cn([C@@H]2O[C@H](CO[Si](C)(C)C(C)(C)C)[C@@]3(OS(=O)(=O)C=C3N)[C@H]2O[Si](C)(C)C(C)(C)C)c1=O,3
2,CCOC(=O)CCCCCn1c(=O)c(C)cn([C@@H]2O[C@H](CO[Si](C)(C)C(C)(C)C)[C@@]3(OS(=O)(=O)C=C3N)[C@H]2O[Si](C)(C)C(C)(C)C)c1=O,> 500
3,Cc1cn([C@@H]2O[C@H](CO[Si](C)(C)C(C)(C)C)[C@@]3(OS(=O)(=O)C=C3N)[C@H]2O[Si](C)(C)C(C)(C)C)c(=O)n(CC(=O)N(C)C)c1=O,3.5
4,Cc1cn([C@@H]2O[C@H](CO[Si](C)(C)C(C)(C)C)[C@@]3(OS(=O)(=O)C=C3N)[C@H]2O[Si](C)(C)C(C)(C)C)c(=O)n(CCCN)c1=O,8.1
5,COCCn1c(=O)c(C)cn([C@@H]2O[C@H](CO[Si](C)(C)C(C)(C)C)[C@@]3(OS(=O)(=O)C=C3N)[C@H]2O[Si](C)(C)C(C)(C)C)c1=O,2.9
6,Cc1cn([C@@H]2O[C@H](CO[Si](C)(C)C(C)(C)C)[C@@]3(OS(=O)(=O)C=C3N)[C@H]2O[Si](C)(C)C(C)(C)C)c(=O)n(CCc2ccccc2)c1=O,> 500
7,Cc1cn([C@@H]2O[C@H](CO[Si](C)(C)C(C)(C)C)[C@@]3(OS(=O)(=O)C=C3N)[C@H]2O[Si](C)(C)C(C)(C)C)c(=O)n(CCCCO)c1=O,13

# System: CCRF-CEM
# Test: Ratio of cytostatic concentration to effective concentration in human CEM cell line
# Format: functional
# Settings: not given
row,Compound,SI
1,COC(=O)Cn1c(=O)c(C)cn([C@@H]2O[C@H](CO[Si](C)(C)C(C)(C)C)[C@@]3(OS(=O)(=O)C=C3N)[C@H]2O[Si](C)(C)C(C)(C)C)c1=O,>253
2,CCOC(=O)CCCCCn1c(=O)c(C)cn([C@@H]2O[C@H](CO[Si](C)(C)C(C)(C)C)[C@@]3(OS(=O)(=O)C=C3N)[C@H]2O[Si](C)(C)C(C)(C)C)c1=O,312
3,Cc1cn([C@@H]2O[C@H](CO[Si](C)(C)C(C)(C)C)[C@@]3(OS(=O)(=O)C=C3N)[C@H]2O[Si](C)(C)C(C)(C)C)c(=O)n(CC(=O)N(C)C)c1=O,12250
4,Cc1cn([C@@H]2O[C@H](CO[Si](C)(C)C(C)(C)C)[C@@]3(OS(=O)(=O)C=C3N)[C@H]2O[Si](C)(C)C(C)(C)C)c(=O)n(CCCN)c1=O,83
5,COCCn1c(=O)c(C)cn([C@@H]2O[C@H](CO[Si](C)(C)C(C)(C)C)[C@@]3(OS(=O)(=O)C=C3N)[C@H]2O[Si](C)(C)C(C)(C)C)c1=O,485
6,Cc1cn([C@@H]2O[C@H](CO[Si](C)(C)C(C)(C)C)[C@@]3(OS(=O)(=O)C=C3N)[C@H]2O[Si](C)(C)C(C)(C)C)c(=O)n(CCc2ccccc2)c1=O,23
7,Cc1cn([C@@H]2O[C@H](CO[Si](C)(C)C(C)(C)C)[C@@]3(OS(=O)(=O)C=C3N)[C@H]2O[Si](C)(C)C(C)(C)C)c(=O)n(CCCCO)c1=O,227

# System: Human immunodeficiency virus 1
# Test: Effective concentration required to inhibit HIV-1/138K induced cytopathicity in human CEM cell line
# Format: functional, organism-based
# Settings: Human immunodeficiency virus 1, CCRF-CEM
row,Compound,EC50 [µM]
1,CCOC(=O)CCCCCn1c(=O)c(C)cn([C@@H]2O[C@H](CO[Si](C)(C)C(C)(C)C)[C@@]3(OS(=O)(=O)C=C3N)[C@H]2O[Si](C)(C)C(C)(C)C)c1=O,> 10
2,Cc1cn([C@@H]2O[C@H](CO[Si](C)(C)C(C)(C)C)[C@@]3(OS(=O)(=O)C=C3N)[C@H]2O[Si](C)(C)C(C)(C)C)c(=O)n(CC(=O)N(C)C)c1=O,4.5
3,Cc1cn([C@@H]2O[C@H](CO[Si](C)(C)C(C)(C)C)[C@@]3(OS(=O)(=O)C=C3N)[C@H]2O[Si](C)(C)C(C)(C)C)c(=O)n(CCCN)c1=O,> 10
4,COCCn1c(=O)c(C)cn([C@@H]2O[C@H](CO[Si](C)(C)C(C)(C)C)[C@@]3(OS(=O)(=O)C=C3N)[C@H]2O[Si](C)(C)C(C)(C)C)c1=O,> 10
5,Cc1cn([C@@H]2O[C@H](CO[Si](C)(C)C(C)(C)C)[C@@]3(OS(=O)(=O)C=C3N)[C@H]2O[Si](C)(C)C(C)(C)C)c(=O)n(CCc2ccccc2)c1=O,> 10
6,Cc1cn([C@@H]2O[C@H](CO[Si](C)(C)C(C)(C)C)[C@@]3(OS(=O)(=O)C=C3N)[C@H]2O[Si](C)(C)C(C)(C)C)c(=O)n(CCCCO)c1=O,≥ 10

# System: Human immunodeficiency virus 2
# Test: Effective concentration required to inhibit HIV-2 induced cytopathicity in human MT-4 cell line
# Format: functional, organism-based
# Settings: Human immunodeficiency virus 2, MT4
row,Compound,EC50 [µM]
1,COC(=O)Cn1c(=O)c(C)cn([C@@H]2O[C@H](CO[Si](C)(C)C(C)(C)C)[C@@]3(OS(=O)(=O)C=C3N)[C@H]2O[Si](C)(C)C(C)(C)C)c1=O,> 152
2,CCOC(=O)CCCCCn1c(=O)c(C)cn([C@@H]2O[C@H](CO[Si](C)(C)C(C)(C)C)[C@@]3(OS(=O)(=O)C=C3N)[C@H]2O[Si](C)(C)C(C)(C)C)c1=O,> 50
3,Cc1cn([C@@H]2O[C@H](CO[Si](C)(C)C(C)(C)C)[C@@]3(OS(=O)(=O)C=C3N)[C@H]2O[Si](C)(C)C(C)(C)C)c(=O)n(CC(=O)N(C)C)c1=O,> 250
4,Cc1cn([C@@H]2O[C@H](CO[Si](C)(C)C(C)(C)C)[C@@]3(OS(=O)(=O)C=C3N)[C@H]2O[Si](C)(C)C(C)(C)C)c(=O)n(CCCN)c1=O,> 10
5,COCCn1c(=O)c(C)cn([C@@H]2O[C@H](CO[Si](C)(C)C(C)(C)C)[C@@]3(OS(=O)(=O)C=C3N)[C@H]2O[Si](C)(C)C(C)(C)C)c1=O,> 10
6,Cc1cn([C@@H]2O[C@H](CO[Si](C)(C)C(C)(C)C)[C@@]3(OS(=O)(=O)C=C3N)[C@H]2O[Si](C)(C)C(C)(C)C)c(=O)n(CCc2ccccc2)c1=O,> 2
7,Cc1cn([C@@H]2O[C@H](CO[Si](C)(C)C(C)(C)C)[C@@]3(OS(=O)(=O)C=C3N)[C@H]2O[Si](C)(C)C(C)(C)C)c(=O)n(CCCCO)c1=O,> 10

# System: Human immunodeficiency virus 1
# Test: Effective concentration required to inhibit HIV-1 induced cytopathicity in human MT-4 cell line
# Format: functional, organism-based
# Settings: Human immunodeficiency virus 1, MT4
row,Compound,EC50 [nM]
1,COC(=O)Cn1c(=O)c(C)cn([C@@H]2O[C@H](CO[Si](C)(C)C(C)(C)C)[C@@]3(OS(=O)(=O)C=C3N)[C@H]2O[Si](C)(C)C(C)(C)C)c1=O,110
2,CCOC(=O)CCCCCn1c(=O)c(C)cn([C@@H]2O[C@H](CO[Si](C)(C)C(C)(C)C)[C@@]3(OS(=O)(=O)C=C3N)[C@H]2O[Si](C)(C)C(C)(C)C)c1=O,270
3,Cc1cn([C@@H]2O[C@H](CO[Si](C)(C)C(C)(C)C)[C@@]3(OS(=O)(=O)C=C3N)[C@H]2O[Si](C)(C)C(C)(C)C)c(=O)n(CC(=O)N(C)C)c1=O,40
4,COCCn1c(=O)c(C)cn([C@@H]2O[C@H](CO[Si](C)(C)C(C)(C)C)[C@@]3(OS(=O)(=O)C=C3N)[C@H]2O[Si](C)(C)C(C)(C)C)c1=O,160
5,Cc1cn([C@@H]2O[C@H](CO[Si](C)(C)C(C)(C)C)[C@@]3(OS(=O)(=O)C=C3N)[C@H]2O[Si](C)(C)C(C)(C)C)c(=O)n(CCCCO)c1=O,170

# System: Human immunodeficiency virus 1
# Test: Effective concentration required to inhibit HIV-1 induced cytopathicity in human CEM cell line
# Format: functional, organism-based
# Settings: Human immunodeficiency virus 1, CCRF-CEM
row,Compound,EC50 [nM]
1,COC(=O)Cn1c(=O)c(C)cn([C@@H]2O[C@H](CO[Si](C)(C)C(C)(C)C)[C@@]3(OS(=O)(=O)C=C3N)[C@H]2O[Si](C)(C)C(C)(C)C)c1=O,60
2,CCOC(=O)CCCCCn1c(=O)c(C)cn([C@@H]2O[C@H](CO[Si](C)(C)C(C)(C)C)[C@@]3(OS(=O)(=O)C=C3N)[C@H]2O[Si](C)(C)C(C)(C)C)c1=O,130
3,Cc1cn([C@@H]2O[C@H](CO[Si](C)(C)C(C)(C)C)[C@@]3(OS(=O)(=O)C=C3N)[C@H]2O[Si](C)(C)C(C)(C)C)c(=O)n(CC(=O)N(C)C)c1=O,20
4,Cc1cn([C@@H]2O[C@H](CO[Si](C)(C)C(C)(C)C)[C@@]3(OS(=O)(=O)C=C3N)[C@H]2O[Si](C)(C)C(C)(C)C)c(=O)n(CCCN)c1=O,140
5,COCCn1c(=O)c(C)cn([C@@H]2O[C@H](CO[Si](C)(C)C(C)(C)C)[C@@]3(OS(=O)(=O)C=C3N)[C@H]2O[Si](C)(C)C(C)(C)C)c1=O,80
6,Cc1cn([C@@H]2O[C@H](CO[Si](C)(C)C(C)(C)C)[C@@]3(OS(=O)(=O)C=C3N)[C@H]2O[Si](C)(C)C(C)(C)C)c(=O)n(CCc2ccccc2)c1=O,620
7,Cc1cn([C@@H]2O[C@H](CO[Si](C)(C)C(C)(C)C)[C@@]3(OS(=O)(=O)C=C3N)[C@H]2O[Si](C)(C)C(C)(C)C)c(=O)n(CCCCO)c1=O,90

# System: CCRF-CEM
# Test: Cytostatic concentration required to inhibit cell proliferation in human CEM cell line
# Format: functional
# Settings: not given
row,Compound,CC50 [µM]
1,COC(=O)Cn1c(=O)c(C)cn([C@@H]2O[C@H](CO[Si](C)(C)C(C)(C)C)[C@@]3(OS(=O)(=O)C=C3N)[C@H]2O[Si](C)(C)C(C)(C)C)c1=O,> 152
2,CCOC(=O)CCCCCn1c(=O)c(C)cn([C@@H]2O[C@H](CO[Si](C)(C)C(C)(C)C)[C@@]3(OS(=O)(=O)C=C3N)[C@H]2O[Si](C)(C)C(C)(C)C)c1=O,40.6
3,Cc1cn([C@@H]2O[C@H](CO[Si](C)(C)C(C)(C)C)[C@@]3(OS(=O)(=O)C=C3N)[C@H]2O[Si](C)(C)C(C)(C)C)c(=O)n(CC(=O)N(C)C)c1=O,245
4,Cc1cn([C@@H]2O[C@H](CO[Si](C)(C)C(C)(C)C)[C@@]3(OS(=O)(=O)C=C3N)[C@H]2O[Si](C)(C)C(C)(C)C)c(=O)n(CCCN)c1=O,11.6
5,COCCn1c(=O)c(C)cn([C@@H]2O[C@H](CO[Si](C)(C)C(C)(C)C)[C@@]3(OS(=O)(=O)C=C3N)[C@H]2O[Si](C)(C)C(C)(C)C)c1=O,38.8
6,Cc1cn([C@@H]2O[C@H](CO[Si](C)(C)C(C)(C)C)[C@@]3(OS(=O)(=O)C=C3N)[C@H]2O[Si](C)(C)C(C)(C)C)c(=O)n(CCc2ccccc2)c1=O,14.2
7,Cc1cn([C@@H]2O[C@H](CO[Si](C)(C)C(C)(C)C)[C@@]3(OS(=O)(=O)C=C3N)[C@H]2O[Si](C)(C)C(C)(C)C)c(=O)n(CCCCO)c1=O,20.5
